# Test results published in US20200246316A1, “METHODS OF TREATING POST-SURGICAL PAIN WITH A THIAZOLINE ANTI-HYPERALGESIC AGENT” (CERSCI THERAPEUTICS, INC., priority 2019, published 2020).
# Entries after “also recorded” stand apart in the source; their conditions may differ. Where a name gives a salt, the structure may show the parent alone. Read-outs that look alike come from different tables or passages of the source.
# What was measured:
# peroxynitrite (PN) = experiment: Chemical-based assays of peroxynitrite (PN) oxidation; format: biochemical
# Excerpt: In cell-based assays of PN-mediated cytotoxicity, Compound 1 is protective. […] Chemically, Compound 1 can also react stoichiometrically with peroxynitrite to form a para-nitro adduct. Without being bound by theory, by targeting and removing peroxynitrite and peroxide, Compound 1 can disrupt the ensuing cascades that lead to hypersensitivity (protein modification, ion channel hyperexcitation) thus providing a long duration event in terms of pain relief.
# [1] = system: rat models of diabetic neuropathy; experiment: Rat models of diabetic neuropathy (streptozotocin- and methylglyoxal-induced); format: in vivo; settings: mono-hydrochloride
# Excerpt: (§1) In various embodiments, Compound 1 is efficacious in in vivo animal models of acute post-incisional hyperalgesia, both prophylactically and palliatively. […] In various embodiments, less than about 1%, 0.8%, 0.6%, 0.4%, 0.2%, 0.1%, 0.08%, 0.06%, 0.04%, 0.02%, or 0.01% of Compound 1 in blood plasma penetrates the BBB.
# uninjured animals = experiment: Normal sensation in uninjured animals; format: in vivo
# Excerpt: as §1
# CYP1A2 = target: T1, CYP1A2 (Homo sapiens, UniProt P05177); experiment: CYP inhibition in human liver microsomes; format: in vitro ADME
# T1 construct: tissue BD Gentest; host or cells: human liver microsomes
# T1 sequence (P05177 1-516): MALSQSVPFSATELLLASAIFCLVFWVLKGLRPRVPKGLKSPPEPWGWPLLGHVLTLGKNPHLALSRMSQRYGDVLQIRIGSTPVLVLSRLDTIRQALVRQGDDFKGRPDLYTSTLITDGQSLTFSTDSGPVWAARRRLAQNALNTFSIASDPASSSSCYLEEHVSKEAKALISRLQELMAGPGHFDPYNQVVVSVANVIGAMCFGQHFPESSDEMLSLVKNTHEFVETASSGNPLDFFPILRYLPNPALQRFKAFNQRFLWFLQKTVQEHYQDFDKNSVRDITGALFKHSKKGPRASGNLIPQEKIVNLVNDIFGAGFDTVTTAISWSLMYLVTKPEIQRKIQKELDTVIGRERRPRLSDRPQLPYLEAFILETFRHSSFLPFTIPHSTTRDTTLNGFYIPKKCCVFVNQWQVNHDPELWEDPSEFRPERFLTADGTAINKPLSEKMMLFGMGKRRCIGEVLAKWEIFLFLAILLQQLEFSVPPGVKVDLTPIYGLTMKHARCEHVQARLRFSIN
# Procedure: (§2) At varying concentrations, Compound 1 was incubated with human liver microsomes (HLM) in the presence of known substrates (see below) of specific CYP isoforms, in order to measure inhibition induced by Compound 1. Microsomes were incubated with known inhibitors (positive controls) of each CYP isoform, in the presence of substrate, in order to measure the metabolic activity of the microsomes.
# CYP2C19 = target: T2, CYP2C19 (Homo sapiens, UniProt P33261); experiment: CYP inhibition in human liver microsomes; format: in vitro ADME
# T2 construct: tissue BD Gentest; host or cells: human liver microsomes
# Procedure: as §2
# CYP2C9 = target: T3, CYP2C9 (Homo sapiens, UniProt P11712); experiment: CYP inhibition in human liver microsomes; format: in vitro ADME
# T3 construct: tissue BD Gentest; host or cells: human liver microsomes
# Procedure: as §2
# CYP2D6 = target: T4, CYP2D6 (Homo sapiens, UniProt P10635); experiment: CYP inhibition in human liver microsomes; format: in vitro ADME
# T4 construct: tissue BD Gentest; host or cells: human liver microsomes
# Procedure: as §2
# CYP3A4 = target: T5, CYP3A4 (Homo sapiens, UniProt P08684); experiment: CYP inhibition in human liver microsomes; format: in vitro ADME
# T5 construct: tissue BD Gentest; host or cells: human liver microsomes
# Procedure: as §2
# [2] = Elimination from plasma after intravenous administration in rats; format: in vivo; settings: rat
# T3 sequence (P11712 whole entry): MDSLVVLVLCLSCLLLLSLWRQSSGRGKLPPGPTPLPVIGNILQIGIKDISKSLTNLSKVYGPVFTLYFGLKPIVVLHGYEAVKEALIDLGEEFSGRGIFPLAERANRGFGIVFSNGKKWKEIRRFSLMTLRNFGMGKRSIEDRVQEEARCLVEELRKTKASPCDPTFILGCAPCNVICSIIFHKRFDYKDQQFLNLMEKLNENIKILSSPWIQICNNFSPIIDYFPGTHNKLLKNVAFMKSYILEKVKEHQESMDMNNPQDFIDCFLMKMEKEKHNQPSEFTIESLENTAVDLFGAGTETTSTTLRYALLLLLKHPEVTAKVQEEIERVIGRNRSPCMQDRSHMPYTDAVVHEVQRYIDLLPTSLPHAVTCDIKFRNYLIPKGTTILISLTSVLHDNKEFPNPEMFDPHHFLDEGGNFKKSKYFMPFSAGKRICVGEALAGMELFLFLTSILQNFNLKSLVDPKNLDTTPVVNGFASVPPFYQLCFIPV
# T4 sequence (P10635 whole entry): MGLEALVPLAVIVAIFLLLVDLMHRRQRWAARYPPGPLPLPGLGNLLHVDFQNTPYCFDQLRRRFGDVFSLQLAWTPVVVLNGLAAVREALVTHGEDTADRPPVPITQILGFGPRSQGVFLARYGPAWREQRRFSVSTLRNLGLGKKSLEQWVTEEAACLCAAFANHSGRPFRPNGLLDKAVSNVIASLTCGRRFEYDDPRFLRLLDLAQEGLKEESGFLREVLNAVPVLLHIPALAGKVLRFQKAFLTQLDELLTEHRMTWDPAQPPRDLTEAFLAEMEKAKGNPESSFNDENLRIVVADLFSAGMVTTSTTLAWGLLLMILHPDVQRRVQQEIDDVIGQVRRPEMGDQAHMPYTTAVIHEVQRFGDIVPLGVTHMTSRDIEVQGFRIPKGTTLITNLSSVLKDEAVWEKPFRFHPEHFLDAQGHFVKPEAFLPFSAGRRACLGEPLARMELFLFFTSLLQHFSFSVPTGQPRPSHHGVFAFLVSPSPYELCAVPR
# T2 sequence (P33261 whole entry): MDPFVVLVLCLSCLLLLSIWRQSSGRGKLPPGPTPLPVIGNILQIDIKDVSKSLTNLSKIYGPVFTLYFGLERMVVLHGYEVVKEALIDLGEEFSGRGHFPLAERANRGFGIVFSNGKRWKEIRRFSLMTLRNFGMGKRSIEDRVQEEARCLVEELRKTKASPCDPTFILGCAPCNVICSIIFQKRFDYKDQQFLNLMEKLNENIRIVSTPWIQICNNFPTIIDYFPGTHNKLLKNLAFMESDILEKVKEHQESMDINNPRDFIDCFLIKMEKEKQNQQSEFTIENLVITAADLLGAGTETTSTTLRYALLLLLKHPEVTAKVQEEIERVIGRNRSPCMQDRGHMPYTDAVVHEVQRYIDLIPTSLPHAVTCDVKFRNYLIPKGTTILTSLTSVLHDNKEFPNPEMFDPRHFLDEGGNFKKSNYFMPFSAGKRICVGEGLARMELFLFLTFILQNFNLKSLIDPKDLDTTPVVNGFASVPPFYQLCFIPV
# T5 sequence (P08684 whole entry): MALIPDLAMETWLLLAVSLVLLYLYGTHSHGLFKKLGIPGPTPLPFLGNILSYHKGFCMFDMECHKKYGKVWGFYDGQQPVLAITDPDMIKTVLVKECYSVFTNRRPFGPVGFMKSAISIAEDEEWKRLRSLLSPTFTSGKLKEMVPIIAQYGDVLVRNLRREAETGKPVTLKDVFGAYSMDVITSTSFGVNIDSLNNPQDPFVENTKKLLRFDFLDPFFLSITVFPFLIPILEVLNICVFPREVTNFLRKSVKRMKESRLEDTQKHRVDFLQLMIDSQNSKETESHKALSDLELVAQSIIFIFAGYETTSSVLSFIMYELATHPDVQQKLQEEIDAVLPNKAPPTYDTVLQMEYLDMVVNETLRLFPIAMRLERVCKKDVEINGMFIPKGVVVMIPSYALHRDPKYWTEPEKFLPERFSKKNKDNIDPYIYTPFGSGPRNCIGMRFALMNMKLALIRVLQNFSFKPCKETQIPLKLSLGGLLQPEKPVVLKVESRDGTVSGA
smiles,measurement,setting,value
"CC1(C)SC(Nc2ccccc2O)=N[C@@H]1C(=O)O [Compound 1, (R)-2-(2-hydroxyphenylamino)-5,5-dimethyl-4,5-dihydrothiazole-4-carboxylic acid mono-hydrochloride]",PN-mediated oxidation of small-molecule organic substrates such as luminol,peroxynitrite (PN),inhibits PN-mediated oxidation
same,allodynia in models of diabetic neuropathy,[1],alleviates allodynia; also recorded: reverses allodynia
same,effect on normal sensation,uninjured animals,does not alter normal sensation
same,CYP inhibition,"CYP1A2; CYP1A2, up to 100 μM",did not inhibit
same,IC50,"CYP1A2; CYP1A2, read-out: IC50",> 100 µM
same,IC50,"CYP1A2; human liver microsomes, known substrate of the CYP isoform, read-out: IC50 (μM) CYP 1A2",> 100 µM
same,CYP inhibition,"CYP2C19; CYP2C19, up to 100 μM",did not inhibit
same,IC50,"CYP2C19; CYP2C19, read-out: IC50",> 100 µM
same,IC50,"CYP2C19; human liver microsomes, known substrate of the CYP isoform, read-out: IC50 (μM) CYP 2C19",> 100 µM
same,CYP inhibition,"CYP2C9; CYP2C9, up to 100 μM",did not inhibit
same,IC50,"CYP2C9; CYP2C9, read-out: IC50",> 100 µM
same,IC50,"CYP2C9; human liver microsomes, known substrate of the CYP isoform, read-out: IC50 (μM) CYP 2C9",> 100 µM
same,CYP inhibition,"CYP2D6; CYP2D6, up to 100 μM",did not inhibit
same,IC50,"CYP2D6; CYP2D6, read-out: IC50",> 100 µM
same,IC50,"CYP2D6; human liver microsomes, known substrate of the CYP isoform, read-out: IC50 (μM) CYP 2D6",> 100 µM
same,CYP inhibition,"CYP3A4; CYP3A4, up to 100 μM",did not inhibit
same,IC50,"CYP3A4; CYP3A4, read-out: IC50",> 100 µM
same,IC50,"CYP3A4; human liver microsomes, known substrate of the CYP isoform, read-out: IC50 (μM) CYP 3A4",> 100 µM
same,half-life,[2],~3 h
